{
  "source": "the NIST ThermoML archive (doi:10.1016/j.tca.2011.12.010)",
  "key": {"[1]": {"conditions": "DTA"}, "[2]": {"assay": "Molar enthalpy of transition or fusion", "conditions": "DSC"}},
  "note": "± gives the expanded uncertainty stated by the source.",
  "data": [
    {"smiles": "O=[N+]([O-])[O-].O=[N+]([O-])[O-].O=[N+]([O-])[O-].O=[N+]([O-])[O-].[K+].[K+].[Mg+2]", "note": "[bis-potassium magnesium nitrate]", "values": [
      {"measurement": "Triple point temperature", "setting": "[1]; Crystal 1", "result": "468.85 ± 0.5", "unit": "K"},
      {"measurement": "Triple point temperature", "setting": "[1]; Crystal 2", "result": "404.8 ± 0.5", "unit": "K"},
      {"measurement": "Molar enthalpy of transition or fusion", "setting": "[2]; Crystal 1", "result": "4.95 ± 0.151", "unit": "kcal/mol"},
      {"measurement": "Molar enthalpy of transition or fusion", "setting": "[2]; Crystal 2", "result": "0.648 ± 0.0478", "unit": "kcal/mol"}
    ]}
  ]
}
